Test results reported in patent publication US20230129485A1, “SYSTEM AND METHOD FOR DETERMINING MATERIAL PROPERTIES OF MOLECULAR SYSTEMS FROM AN AB-INITIO PARAMETERIZED FORCE-FIELD” (InterX, Inc., priority 2021, published 2023).
Where two headings read alike, the source gives them in different places.

Experiments:
[1] = Free energy of hydration predicted with the QM-parameterized force field model (ARROW FF), classical MD and PIMD simulation in a water box; settings: for water Arrow MD Error / water Arrow PIMD8 Error: Table 3; for water Arrow MD Error: absolute error of MD hydration free energy vs experiment; for water Arrow PIMD8 Error: absolute error of PIMD8 hydration free energy vs experiment; for Arrow PIMD8 Error: absolute error vs Exp (hydration)
How it was run: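 Solute decoupled from solvent in a 32×32×32 Å3 water box (PME, 9 Å cutoffs), electrostatics, exchange-repulsion and dispersion switched off together over 15 lambda points with soft-coring. Steepest-descent minimization, 50 ps equilibration, 1 ns NPT production at 1 atm; classical and path-integral MD. Free energy from BAR and TI.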

[2] = CHEX/H2O partition coefficient (log D) predicted with the QM-parameterized force field model (ARROW FF)
How it was run: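 Cyclohexane/water partition coefficients were predicted by molecular simulation with a QM-parameterized force field, with bonded force constants and equilibrium values fitted to MP2/aug-cc-pVTZ energies. Solutes carried neutral functional groups, and results from four independent groups were averaged.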

[3] = Free energy of hydration by COSMO implicit solvent model (MolPro ver. 2012); settings: absolute error vs Exp (hydration)
How it was run: (§1)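 COSMO solvation free energies were calculated for the molecule set with MolPro because no original-COSMO free energy data were available. SMD and PCM hydration free energies were obtained as received. SMD, PCM and COSMO-RS values cover only molecules that overlap with those computed using the QM-parameterized force field model.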

[4] = Free energy of hydration by Solvation Model Dielectric (SMD) implicit solvent model; settings: absolute error vs Exp (hydration)
How it was run: as §1

[5] = Free energy of hydration by Polarizable Continuum Model (PCM); settings: absolute error vs Exp (hydration)
How it was run: as §1

[6] = Free energy of hydration by COSMO-RS
How it was run: as §1

[7] = Free energy of hydration by Free Energy Machine Learning Model (FML); settings: absolute error vs Exp (hydration)
Excerpt: Machine learning models can be used for free energy determination.

[8] = Table 3; free energy of hydration, experimental; cited from earlier work
[9] = Table 3; free energy of solvation in cyclohexane, experimental; cited from earlier work
[10] = implicit solvent model, values received; cited from earlier work
[11] = implicit solvent model, values received; cited from earlier work; remark: listed apart in the source
[12] = Table 3; CHEX/H2O partition coefficient, experimental; cited from earlier work
[13] = Table 3, absolute error of MD log D vs experiment
[14] = Table 3, absolute error of PIMD log D vs experiment

Compound | water Arrow MD Error [1] | water Arrow PIMD8 Error [1] | Arrow PIMD8 Error [1] | log D Arrow MD Error [2] | log D Arrow PIMD Error [2] | COSMO/Molpro Error [3] | SMD Error [4] | PCM Error [5] | COSMO-RS error [6] | FML error [7] | water Exp (hydration) [8] | CHEX Exp (solvation) [9] | SMD free energy of hydration [10] | PCM free energy of hydration [11] | Exp (log D) [12] | log D Arrow MD Error [2, 13] | log D Arrow PIMD Error [2, 14]
CCCC(C)=O [2-Pentanone] | 0.67 kcal/mol | 0.01 kcal/mol | 0.01 kcal/mol | 0.22 | 0.20 | 4.22 kcal/mol | 0.18 kcal/mol | 0.48 kcal/mol | 0.07 kcal/mol | 0.29 kcal/mol | -3.52 kcal/mol | -4.19 kcal/mol | -3.70 kcal/mol | -4.00 kcal/mol | 0.49 | – | –
CCC(=O)CC [3-Pentanone] | 0.88 kcal/mol | 0.23 kcal/mol | 0.23 kcal/mol | 0.32 | 0.02 | 3.33 kcal/mol | 0.09 kcal/mol | 0.29 kcal/mol | 0.06 kcal/mol | 0.16 kcal/mol | -3.41 kcal/mol | -4.30 kcal/mol | -3.50 kcal/mol | -3.70 kcal/mol | 0.65 | – | –
CC(C)=O [Acetone] | 0.33 kcal/mol | 0.31 kcal/mol | 0.31 kcal/mol | – | – | 4.55 kcal/mol | 0.30 kcal/mol | 0.40 kcal/mol | 0.90 kcal/mol | 0.34 kcal/mol | -3.80 kcal/mol | -2.67 kcal/mol | -4.10 kcal/mol | -4.20 kcal/mol | −0.83 | 0.01 | 0.31
CCCCC(C)=O [hexa2none] | 0.69 kcal/mol | 0.20 kcal/mol | 0.20 kcal/mol | – | – | 4.43 kcal/mol | 0.22 kcal/mol | 0.72 kcal/mol | 0.17 kcal/mol | 0.07 kcal/mol | -3.28 kcal/mol | -4.77 kcal/mol | -3.50 kcal/mol | -4.00 kcal/mol | 1.09 | 0.07 | 0.11
